According to patent publication US20110105397A1, “METHOD FOR TREATING HEART FAILURE WITH STRESSCOPIN-LIKE PEPTIDES” (priority 2009, published 2011):
“And” between values parts separate entries of the source, which are not always exact repeats. Equal values may be shown once.

How the values were obtained:
[1] = Nonclinical pharmacokinetics in rats; parameters: species or system rat; conditions: in vivo
Description: A sandwich immunoassay was developed using an affinity purified goat polyclonal antibody, specific to h-SCP that was pre-coated onto a microplate with integrated electrodes. h-SCP molecules present in the sample will bind to the capture polyclonal antibody coated on the plate. After washing away any unbound substances, a sulfo-tagged mouse monoclonal anti-h-SCP antibody was added. This conjugated antibody will bind to the h-SCP molecules captured on the microplate and the quantity of analyte was determined by electrochemiluminescence. The amount of signal generated is directly proportional to the h-SCP concentration in the sample or standard. The standard curve range is 3.125-1600 pg/mL with a quantifiable range from 10-800 pg/mL. A sample volume of 25 μL (in duplicate) is required for this assay. This immunoassay is specific for human and dog stresscopin and human urocortin III (h-UCN3). […] After completion of the analysis, based on a comparison of reference standards between the ELISA and HPLC method, a correction factor of 1.57 was applied to all bioanalytical data.
The nonclinical pharmacokinetics of h-SCP (SEQ ID NO:1) and pegylated stresscopin-like peptides were studied in rats, dogs, and cynomolgus monkeys (cyno). Nonclinical pharmacokinetic studies focused on characterization of IV infusion at pharmacologically relevant dose levels, supplemented with IV and SC bolus and toxicokinetic analysis.

[2] = Human pharmacokinetics, healthy subjects, 7.5-hour continuous ascending dose IV infusion; format: in vivo; conditions: for half-life / clearance / Cmax / Tmax / AUC(0-inf): human, in vivo
Description: In healthy subjects following a 7.5-hour continuous ascending dose IV infusion of h-SCP (SEQ ID NO:1) noncompartmental pharmacokinetic analyses were performed to determine plasma concentrations of h-SCP (SEQ ID NO:1). Plasma h-SCP (SEQ ID NO:1) reached the steady state shortly after initiating the IV infusion (FIG. 16A). […] Within 30 minutes, plasma h-SCP (SEQ ID NO:1) was reduced to ≦20% of the h-SCP (SEQ ID NO:1) level at the end of infusion. […] However, the additional compartment's contribution to the overall exposure and accumulation of h-SCP (SEQ ID NO:1) is likely marginal as indicated by the effective half-lives.

[3] = system: subjects with heart failure; assay: Echocardiography substudy in heart failure subjects; format: in vivo, human
Description: An echocardiography substudy was conducted to examine the impact of h-SCP (SEQ ID NO:1) on cardiodynamic parameters. Five subjects elected to participate in the echocardiography substudy. One subject received placebo and 4 subjects received h-SCP (SEQ ID NO:1) at doses ranging from 9 to 45 ng/kg/min during their last 2.5-hour infusion period when the echocardiogram was obtained. […] Because of the small number of subjects who participated in this substudy and the varied dose administered the results are not conclusionary, but mainly indicative of the effect.

[4] = female, rat IV infusion 3 hours, F, 83.3 ng/kg/min
[5] = female, rat IV infusion 3 hours, F, 167 ng/kg/min
[6] = female, rat IV infusion 3 hours, F, 333 ng/kg/min
[7] = male, 3000 ng/kg, rat IV bolus, M, 3,000 ng/kg
[8] = male, 10000 ng/kg, rat IV bolus, M, 10,000 ng/kg
[9] = male, 300000 ng/kg, rat IV bolus, M, 300,000 ng/kg
[10] = male, rat IV infusion 3 hours, M, 83.3 ng/kg/min
[11] = male, rat IV infusion 3 hours, M, 167 ng/kg/min
[12] = male, rat IV infusion 3 hours, M, 333 ng/kg/min
[13] = healthy subjects, infusion rate 9/18/36 ng/kg/min, mean, N = 5
[14] = healthy subjects, infusion rate 18/54/72 ng/kg/min, mean, N = 3
[15] = healthy subjects, infusion rate 36/72/144 ng/kg/min, N = 1
[16] = healthy subjects, infusion rate 54/72/108 ng/kg/min, mean, N = 2

Substance: H-TKFTLSLDVPTNIMNLLFNIAKAKNLRAQAAANAHLMAQI-NH2 [SEQ ID NO: 1, TKFTLSLDVPTNIMNLLFNIAKAKNLRAQAAANAHLMAQI-NH2]
- AUC(0-inf) [1, 4]: 1.47 ng·h/mL
- Cmax [1, 4]: 0.906 ng/mL
- clearance ([1]; female, rat IV infusion 3 hours, F, 83.3 ng/kg/min, read-out: CL): 107 mL/min/kg
- AUC(0-inf) [1, 5]: 1.15 ng·h/mL
- Cmax [1, 5]: 0.683 ng/mL
- clearance ([1]; female, rat IV infusion 3 hours, F, 167 ng/kg/min, read-out: CL): 271 mL/min/kg
- AUC(0-inf) [1, 6]: 4.45 ng·h/mL
- Cmax [1, 6]: 2.67 ng/mL
- clearance ([1]; female, rat IV infusion 3 hours, F, 333 ng/kg/min, read-out: CL): 130 mL/min/kg
- half-life ([1]; female, rat, iv, t1/2 alpha): 0.0317 h
- half-life ([1]; female, rat, iv, t1/2 terminal): 0.97 h
- AUC(0-inf) [1, 7]: 0.522 ng·h/mL
- Cmax [1, 7]: 4.8 ng/mL
- clearance ([1]; male, 3000 ng/kg, rat IV bolus, M, 3,000 ng/kg, read-out: CL): 109 mL/min/kg
- AUC(0-inf) [1, 8]: 1.5 ng·h/mL
- Cmax [1, 8]: 13.6 ng/mL
- clearance ([1]; male, 10000 ng/kg, rat IV bolus, M, 10,000 ng/kg, read-out: CL): 116 mL/min/kg
- Cmax ([1]; male, 50000 ng/kg, rat IV bolus, M, 50,000 ng/kg): 224 ng/mL
- clearance ([1]; male, 50000 ng/kg, rat IV bolus, M, 50,000 ng/kg, read-out: CL): 41.8 mL/min/kg
- AUC(0-inf) [1, 9]: 99.7 ng·h/mL
- Cmax [1, 9]: 780 ng/mL
- clearance ([1]; male, 300000 ng/kg, rat IV bolus, M, 300,000 ng/kg, read-out: CL): 50.1 mL/min/kg
- AUC(0-inf) [1, 10]: 1.24 ng·h/mL
- Cmax [1, 10]: 0.752 ng/mL
- clearance ([1]; male, rat IV infusion 3 hours, M, 83.3 ng/kg/min, read-out: CL): 116 mL/min/kg
- AUC(0-inf) [1, 11]: 2.43 ng·h/mL
- Cmax [1, 11]: 1.53 ng/mL
- clearance ([1]; male, rat IV infusion 3 hours, M, 167 ng/kg/min, read-out: CL): 109 mL/min/kg
- AUC(0-inf) [1, 12]: 4.85 ng·h/mL
- Cmax [1, 12]: 2.86 ng/mL
- clearance ([1]; male, rat IV infusion 3 hours, M, 333 ng/kg/min, read-out: CL): 118 mL/min/kg
- half-life ([1]; rat, alpha-phase half-life (t1/2 alpha)): < 0.0833 h
- time to apparent steady-state plasma concentration after initiation of infusion ([1]; rat, iv): ≤ 2 h
- clearance ([1]; rat, rats, IV bolus, read-out: clearance values): 42 to 116 mL/min/kg
- human equivalent dose to achieve Cpss of 620 pg/mL ([2]; dose = CL × Cpss / weight, 70 kg): 4.4 ng/kg/min
- expected steady-state plasma concentration (Cpss) ([2]; human starting dose of 0.1 ng/kg/min, pharmacokinetic-based approach): 8.6 pg/mL
- half-life ([2]; healthy subjects, across dose groups, read-out: Mean effective half-life): 1.54 to 14.2 h
- clearance ([2]; healthy subjects, across dose groups, read-out: Mean systemic clearance): 4.5 to 7 mL/min/kg
- half-life ([2]; healthy subjects, across dose groups, read-out: Mean terminal half-life): 2.13 to 28.5 h
- Cmax ([2]; healthy subjects, infusion rate 0.1/0.3/1 ng/kg/min, mean, N = 5): 0.248 ng/mL
- Tmax ([2]; healthy subjects, infusion rate 0.1/0.3/1 ng/kg/min, median, N = 5): 7.47 h
- AUC(0-inf) ([2]; healthy subjects, infusion rate 1/3/9 ng/kg/min, mean, N = 4): 7.41 ng·h/mL
- clearance ([2]; healthy subjects, infusion rate 1/3/9 ng/kg/min, mean, N = 4, read-out: CL (converted)): 4.67 mL/min/kg
- Tmax ([2]; healthy subjects, infusion rate 1/3/9 ng/kg/min, median, N = 5): 7 h
- AUC(0-inf) [2, 13]: 28.9 ng·h/mL
- Cmax [2, 13]: 7.26 ng/mL
- clearance ([2]; healthy subjects, infusion rate 9/18/36 ng/kg/min, mean, N = 5, read-out: CL (converted)): 5.5 mL/min/kg
- Tmax ([2]; healthy subjects, infusion rate 9/18/36 ng/kg/min, median, N = 5): 7 h
- AUC(0-inf) ([2]; healthy subjects, infusion rate 18/36/72 ng/kg/min, N = 1): 68.7 ng·h/mL
- clearance ([2]; healthy subjects, infusion rate 18/36/72 ng/kg/min, N = 1, read-out: CL (converted)): 4.67 mL/min/kg
- Cmax ([2]; healthy subjects, infusion rate 18/36/72 ng/kg/min, mean, N = 2): 14.1 ng/mL
- Tmax ([2]; healthy subjects, infusion rate 18/36/72 ng/kg/min, median, N = 2): 6.46 h
- AUC(0-inf) [2, 14]: 55.9 ng·h/mL
- Cmax [2, 14]: 9.01 ng/mL
- clearance ([2]; healthy subjects, infusion rate 18/54/72 ng/kg/min, mean, N = 3, read-out: CL (converted)): 6.83 mL/min/kg
- Tmax ([2]; healthy subjects, infusion rate 18/54/72 ng/kg/min, median, N = 3): 5.5 h
- AUC(0-inf) [2, 15]: 138 ng·h/mL
- Cmax [2, 15]: 29.1 ng/mL
- Tmax [2, 15]: 7.42 h
- clearance ([2]; healthy subjects, infusion rate 36/72/144 ng/kg/min, N = 1, read-out: CL (converted)): 4.5 mL/min/kg
- AUC(0-inf) [2, 16]: 95.5 ng·h/mL
- Cmax [2, 16]: 14.6 ng/mL
- clearance ([2]; healthy subjects, infusion rate 54/72/108 ng/kg/min, mean, N = 2, read-out: CL (converted)): 7 mL/min/kg
- Tmax ([2]; healthy subjects, infusion rate 54/72/108 ng/kg/min, median, N = 2): 6.99 h
- clearance ([2]; iv, healthy humans, intravenous infusion, for a 70-kg person, read-out: clearance (CL) (converted)): ~500 mL/min
- ejection fraction after infusion ([3]; one subject, 9 ng/kg/min, from 20%): 24.5%
- ejection fraction after infusion ([3]; one subject, 36 ng/kg/min, from 25.0%): 30.3%
- ejection fraction after infusion ([3]; two subjects, 45 ng/kg/min, from 36.0% and from 28.0%, listed as h-SCP): 34.7% and 26.1%
